Drawing on patent EP4737452A1, “NOVEL PYRIMIDINE DERIVATIVES” (Aigen Sciences Inc., priority 2023, dated 2025), this text covers IC50 for 18 molecules.

Like-named read-outs stand apart in the source and are kept apart here. Some results are limits rather than exact numbers.

The subject of one test is MDA-MB-436. Nature of the test: Cell survival analysis (CellTiter-Glo, 10 days culture). The test is classed as cell-based. As to conditions: Homo sapiens, read-out: Cell growth IC50 grade. The method, then: In this experimental example, the cell growth inhibitory effect of compounds according to the present invention and positive control compounds in tumor cell lines was examined.
MDA-MB-436 (ATCC, #HTB-130) cell line was cultured in cell culture medium (Leibovitz's L-15 (GIBCO catalog no. 11415064) + 10 µg/mL insulin (Yeasen catalog no. 40112ES25) + 16 µg/mL glutathione (GIBCO catalog no. 25030-081) + 10% fetal bovine serum (FBS) (Excell Bio catalog no. FSP500)). 3,000 MDA-MB-436 cells were plated per well in a 96-well plate and cultured for 1 day at 37°C in 5% CO2. […] The cells were then cultured in a cell incubator for 10 days, and the cell culture medium containing the compound was replaced on the 5th day of culture. Cell survival rate was analyzed for luminescence using the Promega CellTiter-Glo Luminescent Cell Viability Assay Kit (Promega catalog number G7573), and the luminescence was measured using a PerkinElmer EnVision instrument. The percentage of cell growth inhibition rate was calculated from the measured relative luminescence unit (RLU) as follows. Inhibition rate = 1−((RLU compound−RLU blank)/(RLU control−RLU blank)) × 100 [formula]

The target in the next test is USP1 enzyme (Homo sapiens, UniProt O94782). Nature of the test: Biochemical analysis of USP1 enzyme activity (ubiquitin-rhodamine 110 deubiquitination, fluorescence). The note with it: ubiquitin-rhodamine 110 substrate, 10 minutes pre-incubation, 30 minutes reaction at room temperature; read-out: Enzyme activity IC50 grade. The method, then:
In this experimental example, the inhibitory effect of the compounds according to the present invention and the positive control compound on USP1 deubiquitinating activity was tested using a biochemical enzymatic assay. Ubiquitin-rhodamine 110 was used as a substrate for measuring deubiquitinating activity. This substrate compound is a substance in which rhodamine 110 is linked to the glycine residue at the C-terminus of ubiquitin by an amide bond. When this amide bond is cleaved by the deubiquitinating activity, a fluorescent signal is counted.
Subsequently, analytical buffer solution (50 mM hydroxyethylpiperazineethanesulfonic acid (HEPES) containing USP1 enzyme, 100 mM NaCl, 2 mM tris(2-carboxyethyl)phosphine (TCEP), and 100 µg/mL bovine serum albumin (BSA)) were added to each well of the plate and incubated at room temperature for 10 minutes. Subsequently, analytical y buffer solution containing ubiquitin-rhodamine 110 was added to each well and reacted at room temperature for 30 minutes.

The mark [1] stands for this setting: 240 h, MDA-MB-436 cell line, cultured for 10 days, CellTiter-Glo.

Sequence of USP1 enzyme (O94782 whole entry): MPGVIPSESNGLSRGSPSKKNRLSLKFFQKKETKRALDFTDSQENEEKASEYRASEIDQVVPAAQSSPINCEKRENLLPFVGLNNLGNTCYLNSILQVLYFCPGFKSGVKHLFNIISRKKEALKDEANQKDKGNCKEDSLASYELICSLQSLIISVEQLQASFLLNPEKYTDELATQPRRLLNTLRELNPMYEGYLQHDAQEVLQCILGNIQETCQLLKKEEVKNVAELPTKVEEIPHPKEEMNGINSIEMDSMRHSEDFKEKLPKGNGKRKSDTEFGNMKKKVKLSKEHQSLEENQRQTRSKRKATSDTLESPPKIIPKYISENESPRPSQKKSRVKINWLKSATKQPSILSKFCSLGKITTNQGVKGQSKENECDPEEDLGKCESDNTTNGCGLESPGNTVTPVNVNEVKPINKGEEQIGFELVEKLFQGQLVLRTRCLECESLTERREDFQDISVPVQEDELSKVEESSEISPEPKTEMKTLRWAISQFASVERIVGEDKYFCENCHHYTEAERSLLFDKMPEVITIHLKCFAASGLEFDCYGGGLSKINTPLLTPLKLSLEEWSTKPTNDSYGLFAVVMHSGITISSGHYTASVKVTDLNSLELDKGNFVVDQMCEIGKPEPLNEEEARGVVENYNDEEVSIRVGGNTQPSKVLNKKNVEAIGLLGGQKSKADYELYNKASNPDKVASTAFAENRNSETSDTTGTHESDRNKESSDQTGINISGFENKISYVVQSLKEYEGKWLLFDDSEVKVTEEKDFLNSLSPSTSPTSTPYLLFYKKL
Sequence of USP1 enzyme (Q8TAF3 whole entry partner): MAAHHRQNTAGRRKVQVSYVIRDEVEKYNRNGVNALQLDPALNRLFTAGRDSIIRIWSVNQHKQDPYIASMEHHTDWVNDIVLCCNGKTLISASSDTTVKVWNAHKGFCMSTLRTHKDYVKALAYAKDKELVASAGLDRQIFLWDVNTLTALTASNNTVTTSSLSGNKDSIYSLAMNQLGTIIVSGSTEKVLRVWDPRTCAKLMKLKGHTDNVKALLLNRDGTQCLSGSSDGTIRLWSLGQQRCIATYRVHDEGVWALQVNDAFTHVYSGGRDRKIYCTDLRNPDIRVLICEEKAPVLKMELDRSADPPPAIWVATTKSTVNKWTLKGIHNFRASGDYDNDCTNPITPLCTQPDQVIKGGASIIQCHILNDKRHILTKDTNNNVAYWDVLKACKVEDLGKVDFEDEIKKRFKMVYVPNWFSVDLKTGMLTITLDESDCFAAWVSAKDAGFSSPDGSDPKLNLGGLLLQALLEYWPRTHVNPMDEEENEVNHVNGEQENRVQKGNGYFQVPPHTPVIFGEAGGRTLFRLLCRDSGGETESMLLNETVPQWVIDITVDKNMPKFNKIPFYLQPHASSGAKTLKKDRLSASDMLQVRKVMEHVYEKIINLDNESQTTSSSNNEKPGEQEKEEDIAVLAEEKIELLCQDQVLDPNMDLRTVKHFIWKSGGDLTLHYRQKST

Regarding `COc1ncnc(C2CC2)c1-c1ncc(P(C)(C)=O)c(NCc2ccc(-c3nc(C(F)(F)F)cn3C)cc2)n1` [Example 2, (4'-cyclopropyl-6'-methoxy-4-((4-(1-methyl-4-(trifluoromethyl)-1H-imidazol-2-yl)benzyl)amino)-[2,5'-bipyrimidine]-5-yl)dimethylphosphine oxide], the IC50 in the test on MDA-MB-436 (setting [1]) is 100 to 500 nM; at USP1 enzyme, 50 to 100 nM.

For the molecule `Cc1cnn(C(C)C)c1-c1ncc(P(C)(C)=O)c(NCc2ccc(-c3nc(C(F)(F)F)cn3C)cc2)n1` [Example 3, (2-(1-isopropyl-4-methyl-1H-pyrazole-5-yl)-4-((4-(1-methyl-4-(trifluoromethyl)-1H-imidazol-2-yl)benzyl)amino)pyrimidin-5-yl)dimethylphosphine oxide], the IC50 was more than 500 nM in the test with MDA-MB-436 (setting [1]) and more than 100 nM at USP1 enzyme.

On to `CC(C)c1ncccc1-c1ncc(P(C)(C)=O)c(NCc2ccc(-c3nc(C(F)(F)F)cn3C)cc2)n1` [Example 4, (2-(2-isopropylpyridine-3-yl)-4-((4-(1-methyl-4-(trifluoromethyl)-1H-imidazol-2-yl)benzyl)amino)pyrimidin-5-yl)dimethylphosphine oxide], for which the values for the IC50 in the test with MDA-MB-436 (setting [1]) and on USP1 enzyme were 100 to 500 nM and more than 100 nM, respectively.

As to `[2H]C([2H])([2H])Oc1ncnc(C2CC2)c1-c1ncc(P(C)(C)=O)c(NCc2ccc(-c3nc(C(F)(F)F)cn3C)cc2)n1` [Example 5, (4'-cyclopropyl-6'-(methoxy-d3)-4-((4-(1-methyl-4-(trifluoromethyl)-1H-imidazol-2-yl)benzyl)amino)-[2,5'-bipyrimidine]-5-yl)dimethylphosphine oxide], the IC50 lay within 100 to 500 nM with MDA-MB-436 (setting [1]) and 50 to 100 nM on USP1 enzyme.

As to `Cn1cc(C(F)(F)F)nc1-c1ccc(CNc2nc(-c3cccnc3OC(F)F)ncc2P(C)(C)=O)cc1` [Example 6, (2-(2-(difluoromethoxy)pyridin-3-yl)-4-((4-(1-methyl-4-(trifluoromethyl)-1H-imidazol-2-yl)benzyl)amino)pyrimidin-5-yl)dimethylphosphine oxide], the half-maximal inhibitory concentration (IC50) in the test with MDA-MB-436 (setting [1]) is 100 to 500 nM; at USP1 enzyme it was more than 100 nM.

On to `COc1ncnc(C2CC2)c1-c1ncc(P(C)(C)=O)c(NCc2ccc(-c3nc(C(F)(F)F)cn3C)c(F)c2)n1` [Example 7, (4'-cyclopropyl-4-((3-fluoro-4-(1-methyl-4-(trifluoromethyl)-1H-imidazol-2-yl)benzyl)amino)-6'-methoxy-[2,5'-bipyrimidine]-5-yl)dimethylphosphine oxide], for which the values for the IC50 in the test on MDA-MB-436 (setting [1]) and at USP1 enzyme were less than 100 nM and 50 to 100 nM, respectively.

`COc1ncnc(C2CC2)c1-c1ncc(P(C)(C)=O)c(NCc2ccc(-c3nc(C(F)(F)F)cn3C3CC3)cc2)n1` [Example 8, (4'-cyclopropyl-4-((4-(1-cyclopropyl-4-(trifluoromethyl)-1H-imidazol-2-yl)benzyl)amino)-6'-methoxy-[2,5'-bipyrimidine]-5-yl)dimethylphosphine oxide]: the IC50 with MDA-MB-436 (setting [1]) is less than 100 nM; at USP1 enzyme it was less than 50 nM.

Take `COc1ncnc(C2CC2)c1-c1ncc(P(C)(C)=O)c(NCc2ccc(-n3nc(C(F)(F)F)cc3C)cc2)n1` [Example 9, (4'-cyclopropyl-6'-methoxy-4-((4-(5-methyl-3-(trifluoromethyl)-1H-pyrazole-1-yl)benzyl)amino)-[2,5'-bipyrimidine]-5-yl)dimethylphosphine oxide]: the IC50 in the test on MDA-MB-436 (setting [1]) is less than 100 nM; at USP1 enzyme it was less than 50 nM.

With `COc1ncnc(C2CC2)c1-c1ncc(P(C)(C)=O)c(NCC23CCC(c4nc(C(F)(F)F)cn4C)(CC2)CC3)n1` [Example 10, (4'-cyclopropyl-6'-methoxy-4-(((4-(1-methyl-4-(trifluoromethyl)-1H-imidazol-2-yl)bicyclo[2.2.2]octan-1-yl)methyl)amino)-[2,5'-bipyrimidine]-5-yl)dimethylphosphine oxide], the values for the IC50 with MDA-MB-436 (setting [1]) and on USP1 enzyme were 100 to 500 nM and 50 to 100 nM, respectively.

Turning to `COc1ncnc(C2CC2)c1-c1ncc(P(C)(C)=O)c(NCC23C4C5C2C2C3C4C52c2nc(C(F)(F)F)cn2C)n1` [Example 11, (4'-cyclopropyl-6'-methoxy-4-((((1s,2R,3s,4r,5S,6r,7R,8S)-4-(1-methyl-4-(trifluoromethyl)-1H-imidazol-2-yl)cuban-1-yl)methyl)amino)-[2,5'-bipyrimidine]-5-yl)dimethylphosphine oxide], the IC50 was less than 100 nM in the test on MDA-MB-436 (MDA-MB-436, 240 h) and less than 50 nM on USP1 enzyme.

For the molecule `COc1ncnc(C2CC2)c1-c1ncc(P(C)(C)=O)c(NCc2ccc(-c3nc(C(F)(F)F)cn3C(C)C)cc2)n1` [Example 12, (4'-cyclopropyl-4-((4-(1-isopropyl-4-(trifluoromethyl)-1H-imidazol-2-yl)benzyl)amino)-6'-methoxy-[2,5'-bipyrimidine]-5-yl)dimethylphosphine oxide], the IC50 was 100 to 500 nM in the test with MDA-MB-436 (setting [1]) and 50 to 100 nM at USP1 enzyme.

As for `COc1ncnc(C2CC2)c1-c1ncc(P(C)(C)=O)c(NCc2ccc(-c3nc(C(F)(F)F)cn3C(C)C)c(F)c2)n1` [Example 13, (4'-cyclopropyl-4-((3-fluoro-4-(1-isopropyl-4-(trifluoromethyl)-1H-imidazol-2-yl)benzyl)amino)-6'-methoxy-[2,5'-bipyrimidine]-5-yl)dimethylphosphine oxide], the figures for the IC50 in the test on MDA-MB-436 (setting [1]) and at USP1 enzyme were less than 100 nM and less than 50 nM, respectively.

Turning to `COc1ncnc(C2CC2)c1-c1ncc(P(C)(C)=O)c(NCc2ccc(-n3nc(C(F)(F)F)cc3C)c(F)c2)n1` [Example 14, (4'-cyclopropyl-4-((3-fluoro-4-(5-methyl-3-(trifluoromethyl)-1H-pyrazole-1-yl)benzyl)amino)-6'-methoxy-[2,5'-bipyrimidine]-5-yl)dimethylphosphine oxide], the IC50 in the test with MDA-MB-436 (setting [1]) is less than 100 nM; on USP1 enzyme it was less than 50 nM.

As for `COc1ncnc(C2CC2)c1-c1ncc(P(C)(C)=O)c(NCc2ccc(-n3nc(C(F)(F)F)cc3C(C)C)cc2)n1` [Example 15, (4'-cyclopropyl-4-((4-(5-isopropyl-3-(trifluoromethyl)-1H-pyrazole-1-yl)benzyl)amino)-6'-methoxy-[2,5'-bipyrimidine]-5-yl)dimethylphosphine oxide], the 50% inhibitory concentration (IC50) in the test on MDA-MB-436 (setting [1]) is less than 100 nM; on USP1 enzyme, less than 50 nM.

As for `COc1ncnc(C2CC2)c1-c1ncc(P(C)(C)=O)c(NCc2ccc(-n3nc(C(F)(F)F)cc3C(C)C)c(F)c2)n1` [Example 16, (4'-cyclopropyl-4-((3-fluoro-4-(5-isopropyl-3-(trifluoromethyl)-1H-pyrazol-1-yl)benzyl)amino)-6'-methoxy-[2,5'-bipyrimidine]-5-yl)dimethylphosphine oxide], the IC50 with MDA-MB-436 (setting [1]) is less than 100 nM; on USP1 enzyme, less than 50 nM.

For the molecule `COc1ncnc(C2CC2)c1-c1ncc(P(C)(C)=O)c(NCc2ccc(-n3nc(C(F)(F)F)cc3C3CC3)cc2)n1` [Example 17, (4'-cyclopropyl-4-((4-(5-cyclopropyl-3-(trifluoromethyl)-1H-pyrazole-1-yl)benzyl)amino)-6'-methoxy-[2,5'-bipyrimidine]-5-yl)dimethylphosphine oxide], the 50% inhibitory concentration (IC50) with MDA-MB-436 (setting [1]) was less than 100 nM; on USP1 enzyme, less than 50 nM.

For the molecule `COc1ncnc(C2CC2)c1-c1ncc(P(C)(C)=O)c(NCc2ccc(-n3nc(C(F)(F)F)cc3C3CC3)c(F)c2)n1` [Example 18, (4'-cyclopropyl-4-((4-(5-cyclopropyl-3-(trifluoromethyl)-1H-pyrazole-1-yl)-3-fluorobenzyl)amino)-6'-methoxy[2,5'-bipyrimidine]-5-yl)dimethylphosphine oxide], the IC50 in the test on MDA-MB-436 (setting [1]) was less than 100 nM; on USP1 enzyme it was less than 50 nM.

As for `Cc1cnc(-c2ccccc2C(C)C)nc1NCc1ccc(-n2ccnn2)cc1` [ML323, N-(4-(1H-1,2,3-triazol-1-yl)benzyl)-5-methyl-2-(2-isopropylphenyl)pyrimidin-4-amine, reference compound], the IC50 with MDA-MB-436 (setting [1]) was more than 500 nM.
